According to patent US8946438B2, “Benzamides, production thereof, and use thereof as medicaments” (Boehringer Ingelheim International GmbH, priority 2008, dated 2015):

Biological target: p38 MAP-kinase (Homo sapiens, UniProt Q16539)
Assay: Enzymatic assay: inhibition of p38 MAP-kinase (phosphorylation of GST-tagged ATF2, chemoluminescence bead readout)
Format: biochemical
Conditions: inhibitor 1 μM; activated p38 MAP-kinase 1 nM; 4 h preincubation; ATP 100 μM; ATF2 10 nM; read-out: % inhibitory effect at 1 μM
How it was run: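 Activated human p38 MAP-kinase (1 nM) preincubated 4 h at ambient temperature with compound at 1 μM in HEPES pH 7, MgCl2, DTT, Tween20. Then reacted 1 h with GST-ATF2 (10 nM) and ATP (100 μM). Phospho-ATF2 read by bead chemoluminescence at 520-620 nm, given as % inhibition at 1 μM versus kinase-free background.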

Sequence of p38 MAP-kinase (Q16539 whole entry): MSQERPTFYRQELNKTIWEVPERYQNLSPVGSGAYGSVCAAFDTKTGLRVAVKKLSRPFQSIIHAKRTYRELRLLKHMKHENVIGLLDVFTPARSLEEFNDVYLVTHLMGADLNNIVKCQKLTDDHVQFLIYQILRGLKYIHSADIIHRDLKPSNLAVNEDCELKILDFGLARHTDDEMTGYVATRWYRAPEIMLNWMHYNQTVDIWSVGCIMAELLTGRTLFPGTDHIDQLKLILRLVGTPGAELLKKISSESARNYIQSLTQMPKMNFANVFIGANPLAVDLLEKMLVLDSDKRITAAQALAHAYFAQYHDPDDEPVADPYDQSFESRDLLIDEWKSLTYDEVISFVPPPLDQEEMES

inhibition at 1 µM | SMILES
99.8% | COc1c(NC(=O)c2ccc(C)c(Oc3cc(CC4CCCN(C)CC4)ncn3)c2)cc(C(C)(C)C)cc1NS(C)(=O)=O (stereo not drawn) [12(7), N-(5-tert-butyl-3-methanesulphonylamino-2-methoxy-phenyl)-4-methyl-3-[6-(1-methyl-azepan-4-ylmethyl)-pyrimidin-4-yloxy]-benzamide]
98.6% | COc1c(NC(=O)c2ccc(C)c(Oc3ccnc(CNC4CCCN(C)C4)n3)c2)cc(C(C)(C)C)cc1NS(C)(=O)=O (stereo not drawn) [8(18), N-(5-tert-butyl-3-methanesulphonylamino-2-methoxy-phenyl)-4-methyl-3-{2-[(1-methyl-piperidin-3-ylamino)-methyl]-pyrimidin-4-yloxy}-benzamide]
99.3% | COc1c(NC(=O)c2ccc(Cl)c(Oc3ccnc(CNCCN(C)C)c3)c2)cc(C(C)(C)C)cc1NS(C)(=O)=O [8(34), N-(5-tert-butyl-3-methanesulphonylamino-2-methoxy-phenyl)-4-chloro-3-{2-[(2-dimethylamino-ethylamino)-methyl]-pyridin-4-yloxy}-benzamide]
99% | COc1c(NC(=O)c2ccc(Cl)c(Oc3ccnc(CC4CCNCC4)n3)c2)cc(C(C)(C)C)cc1NS(C)(=O)=O [5(30), N-(5-tert-butyl-3-methanesulphonylamino-2-methoxy-phenyl)-4-chloro-3-(2-piperidin-4-ylmethyl-pyrimidin-4-yloxy)-benzamide]
99.5% | COc1c(NC(=O)c2ccc(Cl)c(Oc3ccnc(CC4CCN(C)CC4)c3)c2)cc(C(C)(C)C)cc1NS(C)(=O)=O [12(5), N-(5-tert-butyl-3-methanesulphonylamino-2-methoxy-phenyl)-4-chloro-3-[2-(1-methyl-piperidin-4-ylmethyl)-pyridin-4-yloxy]-benzamide]
98.4% | COc1c(NC(=O)c2ccc(C)c(Oc3cc(CC4CCN(C)CC4)ncn3)c2)cc(C(C)(C)C)cc1NS(C)(=O)=O [Example 9, N-(5-tert-butyl-3-methanesulphonylamino-2-methoxy-phenyl)-4-methyl-3-[6-(1-methyl-piperidin-4-ylmethyl)-pyrimidin-4-yloxy]-benzamide]
96% | CCc1ccc(C(=O)Nc2cc(C(C)(C)C)cc(NS(C)(=O)=O)c2OC)cc1Oc1ccnc(N2CCNCC2)n1 [5(15), N-(5-tert-butyl-3-methanesulphonylamino-2-methoxy-phenyl)-4-ethyl-5-(2-piperazin-1-yl-pyrimidin-4-yloxy)-benzamide]
96.7% | COc1c(NC(=O)c2ccc(C)c(Oc3ccnc(CNC4CCN(C)CC4)n3)c2)cc(C(C)(C)C)cc1NS(C)(=O)=O [8(17), N-(5-tert-butyl-3-methanesulphonylamino-2-methoxy-phenyl)-4-methyl-3-{2-[(1-methyl-piperidin-4-ylamino)-methyl]-pyrimidin-4-yloxy}-benzamide]
99.5% | COc1c(NC(=O)c2ccc(C)c(Oc3ccnc(CC4CCNCC4)c3)c2)cc(C(C)(C)C)cc1S(C)(=O)=O [11(3), N-(5-tert-butyl-3-methanesulphonyl-2-methoxy-phenyl)-4-methyl-3-(2-piperidin-4-ylmethyl-pyridin-4-yloxy)-benzamide]
99% | COc1c(NC(=O)c2ccc(Cl)c(Oc3ccnc(NC4CCNCC4)n3)c2)cc(C(C)(C)C)cc1NS(C)(=O)=O [5(28), N-(5-tert-butyl-3-methanesulphonylamino-2-methoxy-phenyl)-4-chloro-3-[2-(piperidin-4-ylamino)-pyrimidin-4-yloxy]-benzamide]
98.6% | COc1c(NC(=O)c2ccc(Cl)c(Oc3ccnc(CN4CCCN(C)CC4)n3)c2)cc(C(C)(C)C)cc1NS(C)(=O)=O [8(35), N-(5-tert-butyl-3-methanesulphonylamino-2-methoxy-phenyl)-4-chloro-3-[2-(4-methyl-[1,4]diazepan-1-ylmethyl)-pyrimidin-4-yloxy]-benzamide]
96.3% | COc1c(NC(=O)c2ccc(C)c(Oc3cc(C(=O)N4CCN(C)CC4)ncn3)c2)cc(C(C)(C)C)cc1NS(C)(=O)=O [7(2), N-(5-tert-butyl-3-methanesulphonylamino-2-methoxy-phenyl)-4-methyl-3-[6-(4-methyl-piperazine-1-carbonyl)-pyrimidin-4-yloxy]-benzamide]
92.4% | COc1c(NC(=O)c2ccc(C)c(Oc3ccnc(CN(C)CCN(C)C)n3)c2)cc(C(C)(C)C)cc1NS(C)(=O)=O [8(24), N-(5-tert-butyl-3-methanesulphonylamino-2-methoxy-phenyl)-3-(2-{[N-(2-dimethylamino-ethyl)-N-methyl-amino]-methyl}-pyrimidin-4-yloxy)-4-methyl-benzamide]
98.4% | COc1c(NC(=O)c2ccc(C)c(Oc3ccnc(CNCCN(C)C)c3)c2)cc(C(C)(C)C)cc1NS(C)(=O)=O [8(27), N-(5-tert-butyl-3-methanesulphonylamino-2-methoxy-phenyl)-3-{2-[(2-dimethylamino-ethylamino)-methyl]-pyridin-4-yloxy}-4-methyl-benzamide]
98.8% | COc1c(NC(=O)c2ccc(Cl)c(Oc3cc(CN4CCCN(C)CC4)ncn3)c2)cc(C(C)(C)C)cc1NS(C)(=O)=O [8(38), N-(5-tert-butyl-3-methanesulphonylamino-2-methoxy-phenyl)-4-chloro-3-[6-(4-methyl-[1,4]diazepan-1-ylmethyl)-pyrimidin-4-yloxy]-benzamide]
99.3% | COc1c(NC(=O)c2ccc(Cl)c(Oc3ccnc(CN4CCCNCC4)c3)c2)cc(C(C)(C)C)cc1NS(C)(=O)=O [5(37), N-(5-tert-butyl-3-methanesulphonylamino-2-methoxy-phenyl)-4-chloro-3-(2-[1,4]diazepan-1-ylmethyl-pyridin-4-yloxy)-benzamide]
98.6% | COc1c(NC(=O)c2ccc(C)c(Oc3ccnc(N4CCC(N(C)C)CC4)n3)c2)cc(C(C)(C)C)cc1NS(C)(=O)=O [4(8), N-(5-tert-butyl-3-methanesulphonylamino-2-methoxy-phenyl)-3-[2-(4-dimethylamino-piperidin-1-yl)-pyrimidin-4-yloxy]-4-methyl-benzamide]
98.7% | COc1c(NC(=O)c2ccc(C)c(Oc3ccnc(CN4CCN(C)CC4)n3)c2)cc(C(C)(C)C)cc1NS(C)(=O)=O [8(6), N-(5-tert-butyl-3-methanesulphonylamino-2-methoxy-phenyl)-4-methyl-3-[2-(4-methyl-piperazin-1-ylmethyl)-pyrimidin-4-yloxy]-benzamide]
